{"source": "patent US20140272041A1", "about": "“METHODS OF REDUCING PATHOGENS DURING PROCESSING OR POST-PROCESSING OF BEEF, POULTRY AND OTHER MEAT PRODUCTS” (BIRKO Corporation, priority 2009, published 2014)", "key": {"[1]": {"system": "Escherichia coli serotype O157:H7 (ATCC 43888)", "experiment": "Log reduction on inoculated meat samples by immersion", "procedure": "Meat samples were allowed to equilibrate to ambient temperature (74° F.) and inoculated with 25 μl of a late log phase culture of either Escherichia coli serotype O157:H7 (ATCC 43888) or Salmonella enterica serovar Typhimurium (ATCC 14028). Samples were allowed to rest for 10 minutes for the bacteria to attach. After attachment the inoculated samples were immersed in the treatment solutions as detailed in each experiment described below. After immersion, meat samples were immediately placed into a sterile Whirlpack Bag with 10-15 ml of neutralizing buffer to inactivate any residual antimicrobial on the meat surface. Samples were massaged for 3 minutes to extract surviving bacteria from the meat. Bacterial counts in the fluid were enumerated by plating on Violet Red Bile Agar (E. coli) or Salmonella Shigella Agar (Salmonella) and counting colonies after at least 16-24 hours of incubation. […]"}, "[2]": {"system": "Salmonella enterica, ATCC 14028", "experiment": "Log kill in aqueous bacterial suspension, plating on TSA", "assay_type": "cell-based", "conditions": "15 seconds, c. 74° F.", "procedure": "As before, reaction mixtures were incubated for 15 seconds at room temperature (c. 74° F.). The results are depicted in Table XII and graphed in FIG. 12.\nHowever, in this example the effectiveness of such mixtures was tested against Salmonella enterica, ATCC 14028. […] The balance was water. Increasing amounts of these “reagents” were added to a series of reaction tubes.\nAs before each reaction was initiated by the addition of bacteria, incubated at ambient temperature for 15 seconds and terminated by addition of quench buffer. The tests were performed at room temperature. The bacterial titer of each mixture was determined by preparation and plating of serial dilutions on TSA. The results for both reagents are reported in Table XIII and graphed in FIG. 13."}, "E. coli ATCC 12435": {"system": "E. coli ATCC 12435", "experiment": "Log kill / surviving titer in aqueous bacterial suspension, plating on TSA", "assay_type": "cell-based, Escherichia coli", "conditions": "[…] wt./wt. % WAC in 2.5% lactic acid, 15 seconds, 74 to 80 degrees F.", "procedure": "The “reaction” (i.e. interaction of antimicrobial agent and the target organism) was initiated by the addition of bacteria to the antimicrobial solution. The reaction was allowed to proceed for the respective time periods listed in Table I (i.e., at least 15 seconds each) and was terminated at the end of that time by adding quench buffer comprising 3.2 M potassium phosphate buffer, pH 7.2. The sample then was evaluated using serial 10-fold dilutions into sterile phosphate buffer as needed to determine, on Tryptic Soy agar (“TSA”), the titer of surviving bacteria. TSA is a medium that allows the growth of most bacteria.\nThe reduction in the bacterial count is expressed as the “log kill” which is defined as log10 [initial cfu/ml]−log10 [remaining cfu/ml]; where “cfu” refers to “colony forming unit.” All log kills reported herein are positive “base 10.”). Inasmuch as the standard assay mixture contained only ca. 25×10^6 cfu initially (equivalent to 7.398 log) the theoretical maximum kill that can be measured with this assay system is ca. 7.4 log and the practical measuring limit is ca. 6 log. Therefore, high levels of log reduction were monitored by plating reaction mixtures directly (without dilution) onto agar medium. The results are reported in Table I and illustrated in graph format in FIG. 1. […] The tests were replicated with E. coli ATCC 43888, a pathogenic strain of E. coli O157:H7. […]\nAfter incubation for 15 seconds at ambient temperature the reaction was quenched by addition of phosphate buffer and the titer of surviving bacteria was determined by plating on TSA as described in the previous examples. […] The amphoteric and zwitterionic surfactants, which carry a net positive charge under the conditions of the reaction mixture, caused enhancement of the log kill by lactic acid. All anionic surfactants tested caused substantial enhancement of the log kill by lactic acid."}, "[3]": {"system": "E. coli ATCC 43888 (O157:H7)", "experiment": "Log kill in aqueous bacterial suspension, plating on TSA", "assay_type": "cell-based, Escherichia coli"}, "[4]": {"system": "Salmonella enterica serovar Typhimurium (ATCC 14028)", "experiment": "Log reduction on inoculated meat samples by immersion", "conditions": "5% (w/w) total acid (60% lactic+40% citric acid) + 1200 ppm SLS, meat samples immersed 3 minutes at 108° F. (Meat Experiment #43)", "procedure": "Meat samples were allowed to equilibrate to ambient temperature (74° F.) and inoculated with 25 μl of a late log phase culture of either Escherichia coli serotype O157:H7 (ATCC 43888) or Salmonella enterica serovar Typhimurium (ATCC 14028). Samples were allowed to rest for 10 minutes for the bacteria to attach. After attachment the inoculated samples were immersed in the treatment solutions as detailed in each experiment described below. After immersion, meat samples were immediately placed into a sterile Whirlpack Bag with 10-15 ml of neutralizing buffer to inactivate any residual antimicrobial on the meat surface. Samples were massaged for 3 minutes to extract surviving bacteria from the meat. Bacterial counts in the fluid were enumerated by plating on Violet Red Bile Agar (E. coli) or Salmonella Shigella Agar (Salmonella) and counting colonies after at least 16-24 hours of incubation.\nThe meat samples described in Example 16 were treated with 5% (w/w) total acid (60% lactic+40% citric acid) with addition of 1200 ppm of the anionic surfactant sodium lauryl sulfate (SLS) for 3 minutes at 108° F."}, "[5]": {"conditions": "1200 ppm SLS, 5% total acid at ratio 4:6 citric acid:lactic acid, 2 minutes at 109-111° F., control 5% lactic acid only"}, "[6]": {"conditions": "1400 ppm SLS added to 5% total acid 60:40 lactic:citric, 3 minutes at 109° F."}}, "note": "Like-named read-outs stand apart in the source and are kept apart here.", "data": [{"smiles": "CCCCCCCCCCCCOS(=O)(=O)[O-].[Na+]", "note": "[Sodium Lauryl Sulfate, sodium lauryl sulfate]", "values": [{"measurement": "effect of increasing SLS concentration on kill by lactic acid", "setting": "[1]; 4% (w/w) lactic acid with 0-1700 ppm sodium lauryl sulfate, 2 minutes at 108° F.", "value": "enhanced kill"}, {"measurement": "enhancement of reduction when SLS is included", "setting": "[1]; [5]", "value": "ca. 1.6 log"}, {"measurement": "increase of microbial reduction when SLS is included", "setting": "[1]; [5]", "value": 40, "unit": "fold"}, {"measurement": "enhancement of reduction when SLS is included", "setting": "[1]; [6]", "value": "ca. 1.6 log"}, {"measurement": "increase of microbial reduction when SLS is included", "setting": "[1]; [6]", "value": 40, "unit": "fold"}, {"measurement": "Log Kill", "setting": "[2]; sodium lauryl sulfate 0.004 wt./wt. % in […] lactic acid", "value": 3.82, "unit": "log"}, {"measurement": "Log Kill", "setting": "[2]; sodium lauryl sulfate 0.008 wt./wt. % in […] lactic acid", "value": 4.4, "unit": "log"}, {"measurement": "Log Kill", "setting": "[2]; sodium lauryl sulfate 0.012 wt./wt. % in […] lactic acid", "value": 5.489, "unit": "log"}, {"measurement": "Log Kill", "setting": "[2]; sodium lauryl sulfate 0.016 wt./wt. % in […] lactic acid", "value": 5.489, "unit": "log"}, {"measurement": "Log Kill", "setting": "[2]; sodium lauryl sulfate 0.020 wt./wt. % in […] lactic acid", "value": 5.97, "unit": "log"}, {"measurement": "Log Kill (Lactic Acid + Surfactant)", "setting": "E. coli ATCC 12435", "value": 6.43, "unit": "log"}, {"measurement": "Log Kill", "setting": "[3]", "value": 4.8, "unit": "log"}, {"measurement": "in 2.5% Lactic Acid (Log Kill)", "setting": "[3]", "value": 5.81, "unit": "log"}, {"measurement": "in […] Lactic Acid (Log Kill)", "setting": "[3]", "value": 5.83, "unit": "log"}, {"measurement": "Log Kill", "setting": "[3]; sodium lauryl sulfate 0.004 wt./wt. % in […] lactic acid, 15 seconds, 75 degrees F.", "value": 2.08, "unit": "log"}, {"measurement": "Log Kill", "setting": "[3]; sodium lauryl sulfate 0.012 wt./wt. % in […] lactic acid, 15 seconds, 75 degrees F.", "value": 5.92, "unit": "log"}, {"measurement": "Log Kill", "setting": "[3]; sodium lauryl sulfate 0.016 wt./wt. % in […] lactic acid, 15 seconds, 75 degrees F.", "value": 5.92, "unit": "log"}, {"measurement": "in 2.5% Lactic Acid (Log Kill)", "setting": "[3]; sodium lauryl sulfate 0.02 wt./wt. % in 2.5% lactic acid", "value": 4.81, "unit": "log"}, {"measurement": "in 2.5% Lactic Acid (Log Kill)", "setting": "[3]; sodium lauryl sulfate 0.04 wt./wt. % in 2.5% lactic acid", "value": 4.81, "unit": "log"}, {"measurement": "in […] Lactic Acid (Log Kill)", "setting": "[3]; sodium lauryl sulfate 0.04 wt./wt. % in […] lactic acid, 15 seconds, 75 degrees F.", "value": 5.83, "unit": "log"}, {"measurement": "in 2.5% Lactic Acid (Log Kill)", "setting": "[3]; sodium lauryl sulfate 0.06 wt./wt. % in 2.5% lactic acid", "value": 5.81, "unit": "log"}, {"measurement": "in […] Lactic Acid (Log Kill)", "setting": "[3]; sodium lauryl sulfate 0.06 wt./wt. % in […] lactic acid, 15 seconds, 75 degrees F.", "value": 5.34, "unit": "log"}, {"measurement": "in 2.5% Lactic Acid (Log Kill)", "setting": "[3]; sodium lauryl sulfate 0.10 wt./wt. % in 2.5% lactic acid", "value": 5.81, "unit": "log"}, {"measurement": "in […] Lactic Acid (Log Kill)", "setting": "[3]; sodium lauryl sulfate 0.10 wt./wt. % in […] lactic acid, 15 seconds, 75 degrees F.", "value": 5.83, "unit": "log"}, {"measurement": "Log Reduction", "setting": "[4]", "value": 3.28, "unit": "log"}]}]}
